The conditions of data set [1]: Phase I trial; cited from earlier work.
Data set [2] concerns Ba/F3 cells harboring EGFR T790M in conjunction with different exon 19 deletion mutations. Particulars: read-out: IC50 required to inhibit the growth of Ba/F3 cells harboring EGFR T790M; cited from earlier work.
The test system of a further data set is lung cancer patients. The conditions noted are these: all lung cancer patients, not selected for EGFR mutation; cited from earlier work.
For data set [3], the system named is patients with EGFR mutations. Particulars: six prospective trials; cited from earlier work.
For the next data set, the target named is ALK (h) (Homo sapiens (Human), UniProt Q9UM73). The data set can be described thus: Kinase assay, single dose inhibition (Millipore, 33P-ATP filter binding). It is filed as biochemical. Particulars: 0.1 μM test compound, 10 μM ATP; remaining activity relative to DMSO control = 100%.
For the next data set, the target named is EGFR (h) (Homo sapiens (Human), UniProt P00533). The description is as above. It is filed as biochemical. Particulars: 0.1 μM test compound, 10 μM ATP; remaining activity relative to DMSO control = 100%.
Another data set addresses EGFR (L858R) (h) (Homo sapiens (Human), UniProt P00533, L858R). The description is as above. Particulars: 0.1 μM test compound, 10 μM ATP; remaining activity relative to DMSO control = 100%. Format: biochemical.
The next data set concerns the target EGFR (T790M) (h) (Homo sapiens (Human), UniProt P00533, T790M). The data set is described as above. Format: biochemical. Particulars: 0.1 μM test compound, 10 μM ATP; remaining activity relative to DMSO control = 100%.
In the next data set the target is EGFR (T790M, L858R) (h) (Homo sapiens (Human), UniProt P00533, L858R/T790M). The description is as above. It is filed as biochemical. The conditions noted are these: 0.1 μM test compound, 10 μM ATP; remaining activity relative to DMSO control = 100%.
The test system of data set [4] is H1975 (EGFR L858R/T790M) NSCLC cells. The data set can be described thus: Cell proliferation assay (MTS cell viability). It is filed as cell-based. Particulars: for IC50: H1975 cells, 3 days of exposure, MTS; for GI50: NCI-H1975, one set of studies, read-out: GI50, proliferation of H1975 cells expressing EGFR-L858R/T790M.
Data set [5] deals with HCC827 (EGFR Del) NSCLC cells. The data set can be described thus: Cell proliferation assay (MTS cell viability). It is filed as cell-based. Particulars: for IC50: HCC827 cells, 3 days of exposure, MTS; for GI50: HCC827, one set of studies, read-out: GI50, proliferation of HCC827 cells expressing EGFR Del.
Data set [6] relates to A549 (EGFR WT) NSCLC cells. The data set can be described thus: Cell proliferation assay (MTS cell viability). It is filed as cell-based. The conditions noted are these: for IC50: A549 cells, 3 days of exposure, MTS; for GI50: A549.
Another data set has as its system A431 (EGFR WT) cells. The data set can be described thus: Cell proliferation assay (MTS cell viability). Format: cell-based. The conditions noted are these: 3 days of exposure.
For data set [7], the system named is activated and resistant T790M forms of EGFR; EGFR WT. The data set can be described thus: In vitro cellular assays, statements across cell lines. It is filed as cell-based. The conditions noted are these: result in words.
A further data set deals with ALK (Homo sapiens (Human), UniProt Q9UM73). The data set can be described thus: Kinase assay (IC50), fluorescence peptide assay. Format: biochemical. The conditions noted are these: 10 pt curve, 1 μM top concentration, Km ATP.
Another data set concerns the target EGFR (ErbB1) T790M (Homo sapiens (Human), UniProt P00533, T790M). The data set can be described thus: Kinase assay (IC50), fluorescence peptide assay. It is filed as biochemical. Particulars: 10 pt curve, 1 μM top concentration, Km ATP.
For a further data set, the target named is EGFR (ErbB1) (Homo sapiens (Human), UniProt P00533). The data set can be described thus: Kinase assay (IC50), fluorescence peptide assay. Format: biochemical. The conditions noted are these: EGFR WT; 10 pt curve, 10 μM top concentration, Km ATP.
Another data set deals with EGFR (ErbB1) T790M L858R (Homo sapiens (Human), UniProt P00533, L858R/T790M).
In the next data set the target is EGFR (ErbB1) L858R (Homo sapiens (Human), UniProt P00533, L858R). The data set can be described thus: Kinase assay (IC50), fluorescence peptide assay. Particulars: read-out: IC50 EGFR (ErbB1) L858R; 10 pt curve, 1 μM top concentration, Km ATP.
Setting [8] is: read-out: IC50 EGFR (ErbB1) T790M L858R, 10 pt curve, 1 μM top concentration, Km ATP.

Consider eight compounds from patent publication US10059688B2, “Protein tyrosine kinase modulators and methods of use” (BETTA PHARMACEUTICALS CO., LTD., priority 2013, dated 2018).

Where two headings read alike, the source gives them in different places.

Broadly, the Cmax is the peak of the concentration-time curve.

ALK, sequence (Q9UM73 19-1620): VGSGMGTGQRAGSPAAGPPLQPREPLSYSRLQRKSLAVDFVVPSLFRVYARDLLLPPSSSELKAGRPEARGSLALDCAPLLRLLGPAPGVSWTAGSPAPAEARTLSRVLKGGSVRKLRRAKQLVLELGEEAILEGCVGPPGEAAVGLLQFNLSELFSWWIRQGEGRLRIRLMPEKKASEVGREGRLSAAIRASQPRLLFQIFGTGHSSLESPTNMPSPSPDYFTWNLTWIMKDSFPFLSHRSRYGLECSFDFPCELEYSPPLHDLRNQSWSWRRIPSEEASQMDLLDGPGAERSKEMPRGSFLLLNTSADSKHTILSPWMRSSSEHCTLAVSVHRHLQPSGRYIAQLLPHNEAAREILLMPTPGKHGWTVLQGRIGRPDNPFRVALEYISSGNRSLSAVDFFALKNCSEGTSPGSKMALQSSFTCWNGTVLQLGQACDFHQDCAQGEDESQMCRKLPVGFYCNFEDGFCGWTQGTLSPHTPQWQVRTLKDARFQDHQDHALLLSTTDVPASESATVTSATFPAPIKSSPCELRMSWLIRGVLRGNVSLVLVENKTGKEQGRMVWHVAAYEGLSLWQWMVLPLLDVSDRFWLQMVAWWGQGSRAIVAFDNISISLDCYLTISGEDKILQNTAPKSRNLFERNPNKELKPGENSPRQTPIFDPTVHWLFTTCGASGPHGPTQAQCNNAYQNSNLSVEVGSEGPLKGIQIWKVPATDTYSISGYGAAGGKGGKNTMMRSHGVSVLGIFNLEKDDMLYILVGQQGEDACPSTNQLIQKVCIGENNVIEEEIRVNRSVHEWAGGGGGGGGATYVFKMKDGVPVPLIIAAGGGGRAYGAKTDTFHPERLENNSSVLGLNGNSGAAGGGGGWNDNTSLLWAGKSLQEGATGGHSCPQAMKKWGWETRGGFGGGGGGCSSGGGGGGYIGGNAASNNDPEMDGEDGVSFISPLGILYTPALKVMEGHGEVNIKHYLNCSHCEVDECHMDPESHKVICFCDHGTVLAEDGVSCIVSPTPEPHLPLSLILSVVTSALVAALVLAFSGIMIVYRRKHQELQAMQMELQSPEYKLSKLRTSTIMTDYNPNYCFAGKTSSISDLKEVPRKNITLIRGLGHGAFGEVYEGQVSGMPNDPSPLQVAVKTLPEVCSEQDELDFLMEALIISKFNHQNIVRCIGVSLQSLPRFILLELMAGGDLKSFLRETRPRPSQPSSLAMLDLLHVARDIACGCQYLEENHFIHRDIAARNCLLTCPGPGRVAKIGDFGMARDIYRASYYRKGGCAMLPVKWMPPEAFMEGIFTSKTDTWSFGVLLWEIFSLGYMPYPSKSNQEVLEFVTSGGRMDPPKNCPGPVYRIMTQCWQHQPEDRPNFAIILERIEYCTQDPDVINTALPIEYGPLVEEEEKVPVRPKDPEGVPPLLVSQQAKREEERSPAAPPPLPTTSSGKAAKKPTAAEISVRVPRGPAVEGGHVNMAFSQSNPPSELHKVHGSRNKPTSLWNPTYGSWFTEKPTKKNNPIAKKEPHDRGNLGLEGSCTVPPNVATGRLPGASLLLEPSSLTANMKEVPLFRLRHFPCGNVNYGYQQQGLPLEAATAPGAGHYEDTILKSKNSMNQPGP
ALK (h), sequence (Q9UM73 19-1620): as above

`CCOc1cc2ncc(C#N)c(Nc3ccc(OCc4ccccn4)c(Cl)c3)c2cc1NC(=O)/C=C/CN(C)C` [HKI-272]: the Cmax in data set [1] was roughly 200 nM. The IC50 in data set [2] is 200 to 800 nM.
In the case of `C#Cc1cccc(Nc2ncnc3cc(OCCOC)c(OCCOC)cc23)c1` [erlotinib], in the data set on lung cancer patients, the “likelihood of tumor shrinkage (response rate)” value is given as 8-10% and the “median time to tumor progression” value is reported as “approximately 2 months”. Moreover, the radiographic response rates in data set [3] is listed as 60-82%.
On to `C=C(CN1CCOCC1)C(=O)Nc1cccc(Nc2ncc(Cl)c(Nc3ccccc3C(=O)C(=O)N(C)C)n2)c1` [Example 112, N-(3-(5-chloro-4-(2-(2-(dimethylamino)-2-oxoacetyl)phenylamino)pyrimidin-2-ylamino)phenyl)-2-(morpholinomethyl)acrylamide], for which the “Activity (control) % ALK (h)” value at ALK (h) was determined as 21%. In addition, on EGFR (h), the “Activity (control) % EGFR (h)” value is given as 85%. Moreover, the “Activity (control) % EGFR (L858R) (h)” value at EGFR (L858R) (h) came to 66%. In addition, on EGFR (T790M) (h), the “Activity (control) % EGFR (T790M) (h)” value was found to be 14%. For the same compound, on EGFR (T790M, L858R) (h), the “Activity (control) % EGFR (T790M, L858R) (h)” value is 1%. Moreover, the IC50 in data set [4] (Homo sapiens, NCI-H1975, 72 h) is 10 nM; in [5] (Homo sapiens, 72 h) it was 30 nM; in data set [6] (Homo sapiens, 72 h), 40 nM; in the data set on A431 (EGFR WT) cells (Homo sapiens, A-431, 72 h), 100 nM. For the same compound, the “activity against both activated and resistant T790M forms of EGFR in vitro cellular assays” value (“activity … in vitro cellular assays” for short) in data set [7] was “potent activity”.
As to `COc1cc(Nc2ncc(Cl)c(Nc3ccccc3C(=O)C(=O)N(C)C)n2)ccc1N1CCC(N(C)C)CC1` [Example 118, 2-(2-(5-chloro-2-(4-(4-(dimethylamino)piperidin-1-yl)-3-methoxyphenylamino)pyrimidin-4-ylamino)phenyl)-N,N-dimethyl-2-oxoacetamide], the “Activity (control) % ALK (h)” value at ALK (h) turned out to be 3%. The “Activity (control) % EGFR (h)” value at EGFR (h) is recorded as 82%. Moreover, the “Activity (control) % EGFR (L858R) (h)” value at EGFR (L858R) (h) is reported as 29%. On EGFR (T790M) (h), the “Activity (control) % EGFR (T790M) (h)” value stood at 18%. Besides, the “Activity (control) % EGFR (T790M, L858R) (h)” value on EGFR (T790M, L858R) (h) amounted to 2%. Also, the IC50 against ALK turned out to be 10.8 nM; on EGFR (ErbB1) T790M, 4.92 nM; against EGFR (ErbB1), 77.6 nM; in data set [4] (Homo sapiens, NCI-H1975, 72 h) it was 10 nM; in data set [5] (Homo sapiens, 72 h), 20 nM; in data set [6] (Homo sapiens, 72 h) it was 1890 nM. Besides, the IC50 in the data set on A431 (EGFR WT) cells (Homo sapiens, A-431, 72 h) stood at 10 nM; on EGFR (ErbB1) T790M L858R (setting [8]), 5.13 nM; at EGFR (ErbB1) L858R it was 158 nM. Further, the GI50 in data set [4] (Homo sapiens) is 10 nM; in [5] (Homo sapiens) it was 20 nM; in [6] (Homo sapiens), greater than 1500 nM. In data set [7], the “activity … in vitro cellular assays” value is “potent activity”.
With `COc1cc(Nc2ncc(Cl)c(Nc3ccccc3C(=O)C(=O)N(C)C)n2)ccc1N1CCN(C)CC1` [Example 61, 2-(2-(5-chloro-2-(3-methoxy-4-(4-methylpiperazin-1-yl)phenylamino)pyrimidin-4-ylamino)phenyl)-N,N-dimethyl-2-oxoacetamide], the “Activity (control) % ALK (h)” value on ALK (h) came out at 5%. Besides, at EGFR (h), the “Activity (control) % EGFR (h)” value came to 101%. For the same compound, on EGFR (L858R) (h), the “Activity (control) % EGFR (L858R) (h)” value is 70%. Further, the “Activity (control) % EGFR (T790M) (h)” value on EGFR (T790M) (h) is given as 54%. For the same compound, on EGFR (T790M, L858R) (h), the “Activity (control) % EGFR (T790M, L858R) (h)” value amounted to 13%. In addition, the IC50 on ALK was found to be 12.2 nM.
Turning to “N-(5-(5-chloro-4-(2-(2-(dimethylamino)-2-oxoactyl)phenylamino)pyrimidin-2-ylamino)-4-methoxy-2-(4-methylpiperazin-1-yl)phenyl)acrylamide [Example 74]”, at ALK (h), the “Activity (control) % ALK (h)” value was 9%. Further, the “Activity (control) % EGFR (h)” value on EGFR (h) came to 110%. Also, on EGFR (T790M) (h), the “Activity (control) % EGFR (T790M) (h)” value turned out to be 62%. For the same compound, the IC50 in data set [4] came out at 50 nM; in [5], 30 nM; in data set [6] it was 620 nM; in the data set with A431 (EGFR WT) cells, 50 nM. Besides, the “activity … in vitro cellular assays” value in data set [7] is “potent activity”.
Take `C=CC(=O)Nc1ccc(OC)c(Nc2ncc(Cl)c(Nc3ccccc3C(=O)C(=O)N(C)C)n2)c1` [Example 67, N-(3-(5-chloro-4-(2-(2-(dimethylamino)-2-oxoactyl)phenylamino)pyrimidin-2-ylamino)-4-methoxyphenyl)acrylamide]: the “Activity (control) % ALK (h)” value at ALK (h) was determined as 13%. The “Activity (control) % EGFR (h)” value on EGFR (h) was determined as 105%. For the same compound, on EGFR (L858R) (h), the “Activity (control) % EGFR (L858R) (h)” value came to 85%. Further, the “Activity (control) % EGFR (T790M) (h)” value on EGFR (T790M) (h) worked out at 50%. For the same compound, the “Activity (control) % EGFR (T790M, L858R) (h)” value at EGFR (T790M, L858R) (h) was 9%. Besides, the IC50 against ALK came out at 17.3 nM; at EGFR (ErbB1) T790M, 18.9 nM; at EGFR (ErbB1) it was 273 nM; in [4] (Homo sapiens, NCI-H1975, 72 h), 20 nM; in data set [5] (Homo sapiens, 72 h) it was 20 nM; in [6] (Homo sapiens, 72 h) it was 1580 nM. In addition, the IC50 is 110 nM with A431 (EGFR WT) cells (Homo sapiens, A-431, 72 h); 15.4 nM on EGFR (ErbB1) T790M L858R (setting [8]); 500 nM at EGFR (ErbB1) L858R. Besides, the GI50 is 20 nM in data set [4] (Homo sapiens), 20 nM in data set [5] (Homo sapiens) and greater than 1500 nM in data set [6] (Homo sapiens). Besides, the “activity … in vitro cellular assays” value in [7] is “potent activity”.
Consider `C#Cc1cccc(Nc2ncnc3cc4c(cc23)OCCOCCOCCO4)c1` [Icotinib, reference compound], for which the IC50 against EGFR (ErbB1) T790M was greater than 1000 nM; on EGFR (ErbB1), 1.23 nM; on EGFR (ErbB1) T790M L858R (read-out: IC50, resistant mutant EGFR L858R/T790M), no less than 16.6 nM; on EGFR (ErbB1) T790M L858R (setting [8]), greater than 1000 nM; at EGFR (ErbB1) L858R it was 2.02 nM.
